Data taken from patent publication US20230357232A1, “IMIDAZO[1,2-A]PYRIDINE COMPOUND AND PEST CONTROL AGENT” (Nippon Soda Co., Ltd., priority 2020, published 2023).

Legend:
Plutella xylostella = test: Test of efficacy on Plutella xylostella (cabbage leaf dip); type: in vivo; conditions: foliar, 72 h, cabbage leaves dipped 30 seconds, second instar larvae, after 3 days, 25° C., read-out: insecticidal rate
Method: (§1) 5 parts of the imidazo[1,2-a]pyridine compound of the present invention, 93.6 parts of dimethylformamide, and 1.4 parts of polyoxyethylene alkyl aryl ether were mixed and dissolved to prepare emulsion (I) containing 5% of the active ingredient.
(§2) An insecticidal rate was calculated according to the following expression: […]
The emulsion (I) was diluted with water such that the concentration of the compound of the present invention was 125 ppm. Cabbage leaves were dipped in the dilution for 30 seconds. The resulting cabbage leaves were placed in a petri dish. Five second instar larvae of Plutella xylostella were released thereto. The petri dish was placed in a thermostat chamber having a temperature of 25° C. and a humidity of 60%. Life and death were determined after 3 days from the release of the insects, and the insecticidal rate was calculated. The test was conducted in duplicate.

Phyllotreta striolata = test: Test of efficacy on Phyllotreta striolata (spray on Qing geng cai seedlings); type: in vivo; conditions: 168 h, 125 ppm sprayed to Qing geng cai seedlings, adults, after 7 days, 25° C., read-out: insecticidal rate
Method: as §1, §2
The emulsion (I) was diluted with water such that the concentration of the compound of the present invention was 125 ppm to prepare a test chemical. The test chemical was sprayed to Qing geng cai seedlings (at the seventh true leaf stage) planted in 10-cm pots. The Qing geng cai seedlings were dried in air and then placed in a plastic cup. Ten Phyllotreta striolata adults were released thereto. The plastic cup was stored in a thermostat chamber having a temperature of 25° C. and a humidity of 65%. Life and death were determined after 7 days from the release of the insects, and the insecticidal rate was calculated. The test was conducted in duplicate.

Row | Structure (SMILES) | pest or weed control at 125 ppm (Plutella xylostella) [%] | pest or weed control at 125 ppm (Phyllotreta striolata) [%] | melting point [°C]
1 | CCS(=O)(=O)c1c(-c2ncc(-c3ccc(OC(F)(F)F)cc3)n2C)nc2ccc(C(F)(F)F)cn12 [a-3, 3-(ethylsulfonyl)-2-(1-methyl-5-(4-(trifluoromethoxy)phenyl)-1H-imidazol-2-yl)-6-(trifluoromethyl)imidazo[1,2-a]pyridine] | ≥ 80 | ≥ 80 | 
2 | CCS(=O)(=O)c1c(-c2ncc(C=C(Br)Br)n2C)nc2ccc(C(F)(F)F)cn12 [a-14] |  |  | 233 to 235
3 | CCS(=O)(=O)c1c(-c2ncc(-c3ccc(OC(F)(F)F)cc3)n2C)nc2cc(C(F)(F)F)ccn12 [a-10] | ≥ 80 | ≥ 80 | 
4 | CCS(=O)(=O)c1c(-c2ncc(/C=C(\F)C(F)(F)C(F)(F)F)n2C)nc2ccc(C(F)(F)F)cn12 [a-17] | ≥ 80 | ≥ 80 | 
5 | CCS(=O)(=O)c1c(-c2ncc(C(F)C(F)(C(F)(F)F)C(F)(F)F)n2C)nc2ccc(C(F)(F)F)cn12 (centres unmarked) [a-4] | ≥ 80 |  | 
6 | CCS(=O)(=O)c1c(-c2ncn(-c3ccc(OC(F)(F)F)cc3)n2)nc2ccc(C(F)(F)F)cn12 [a-6] | ≥ 80 | ≥ 80 | 
7 | CCS(=O)(=O)c1c(-c2cn(CC(F)(F)C(F)(F)C(F)(F)F)cn2)nc2ccc(C(F)(F)F)cn12 [a-12] | ≥ 80 | ≥ 80 | 
8 | CCS(=O)(=O)c1c(-c2ncc(-c3ccc(C(F)(F)F)nc3)n2C)nc2ccc(C(F)(F)F)cn12 [a-2] | ≥ 80 | ≥ 80 | 
9 | CCS(=O)(=O)c1c(-c2ncc(C=C(Cl)C(F)(F)F)n2C)nc2cc(Cl)ccn12 [a-22] | ≥ 80 | ≥ 80 | 
10 | CCS(=O)(=O)c1c(-c2cn(/C=C(\F)C(F)(F)C(F)(F)F)cn2)nc2ccc(C(F)(F)F)cn12 [a-11] | ≥ 80 | ≥ 80 | 
11 | CCS(=O)(=O)c1c(-c2ncc(-c3ccc(C(F)(F)F)c(Cl)c3)n2C)nc2ccc(C(F)(F)F)cn12 [a-8] | ≥ 80 |  | 
12 | CCS(=O)(=O)c1c(-c2ncc(-c3ccc(OC(F)(F)C(F)F)cc3)n2C)nc2ccc(C(F)(F)F)cn12 [a-1] | ≥ 80 |  | 
13 | CCS(=O)(=O)c1c(-c2ncc(C=C(Cl)C(F)(F)F)n2C)nc2cc(C3CC3)ccn12 [a-21] | ≥ 80 | ≥ 80 | 
14 | CCS(=O)(=O)c1c(-c2ncc(C=C(Cl)C(F)(F)F)n2C)nc2ccc(Cl)cn12 [a-23] | ≥ 80 | ≥ 80 | 
15 | CCS(=O)(=O)c1c(-c2ncc(/C=C/C(F)(F)C(F)(F)F)n2C)nc2ccc(C(F)(F)F)cn12 [a-13] | ≥ 80 | ≥ 80 | 
16 | CCS(=O)(=O)c1c(-c2ncc(-c3ccc(OC(F)(F)F)c(Cl)c3)n2C)nc2ccc(C(F)(F)F)cn12 [a-7] | ≥ 80 | ≥ 80 | 
17 | CCS(=O)(=O)c1c(-c2ncc(C=C(F)C(F)(F)C(F)(F)F)n2C)nc2ccc(C(F)(F)F)cn12 [a-20] | ≥ 80 | ≥ 80 | 
18 | CCS(=O)(=O)c1c(-c2ncc(/C=C(/F)C(F)(F)C(F)(F)F)n2C)nc2ccc(C(F)(F)F)cn12 [a-16] |  | ≥ 80 | 
19 | CCS(=O)(=O)c1c(-c2ncc(C=C(F)C(F)(F)C(F)(F)F)n2C)nc2cc(C(F)(F)F)ccn12 [a-19] | ≥ 80 | ≥ 80 | 
20 | CCS(=O)(=O)c1c(-c2cn(-c3ccc(OC(F)(F)F)cc3)cn2)nc2ccc(C(F)(F)F)cn12 [a-5] | ≥ 80 | ≥ 80 | 
21 | CCS(=O)(=O)c1c(-c2ncc(C=C(Cl)Cl)n2C)nc2ccc(C(F)(F)F)cn12 [a-15] |  |  | 236 to 238
22 | CCS(=O)(=O)c1c(-n2cc(-c3ccc(OC(F)(F)F)cc3)cn2)nc2ccc(C(F)(F)F)cn12 [a-9] | ≥ 80 |  | 
23 | CCS(=O)(=O)c1c(-c2ncc(/C=C(\Cl)C(F)(F)F)n2C)nc2cc(C(F)(F)F)ccn12 [a-24] | ≥ 80 |  | 
